Source: article PMC7758046, “Novel piperazine–chalcone hybrids and related pyrazoline analogues targeting VEGFR-2 kinase; design, synthesis, molecular docking studies, and anticancer evaluation” (Journal of Enzyme Inhibition and Medicinal Chemistry, 2020)

Compound `N#Cc1ccccc1C=CC(=O)c1ccc(N2CCNCC2)cc1` [Va, 2-(3-Oxo-3-(4-(piperazin-1-yl)phenyl)prop-1-enyl)benzonitrile] has a melting point of 150 °C. Work on `N#Cc1ccc(C=CC(=O)c2ccc(N3CCNCC3)cc2)cc1` [Vb, 4-(3-Oxo-3–(4-(piperazin-1-yl)phenyl)prop-1-enyl)benzonitrile] yielded a melting point of 170 °C. For `O=C(C=Cc1ccccc1F)c1ccc(N2CCNCC2)cc1` [Vc, 3-(2-Fluorophenyl)-1-(4-(piperazin-1-yl)phenyl)prop-2-en-1-one], the melting point was 176 °C. For `O=C(C=Cc1cc([N+](=O)[O-])ccc1O)c1ccc(N2CCNCC2)cc1` [Vg, 3-(2-Hydroxy-5-nitrophenyl)-1-(4-(piperazin-1-yl)phenyl)prop-2-en-1-one], the melting point was 185 °C. `O=C(C=Cc1ccco1)c1ccc(N2CCNCC2)cc1` [Vh, 3-(Furan-2-yl)-1-(4-(piperazin-1-yl)phenyl)prop-2-en-1-one] showed a melting point of 190 °C.
